According to patent US20230250253A1, “PLASTIC POLYMER BIOCONVERSION PROCESS” (GEORGIA STATE UNIVERSITY RESEARCH FOUNDATION, INC., priority 2020, published 2023):
Where two headings read alike, the source gives them in different places. Values belong to the compound of their own block, whether it stands above or below them.

Key:
Y. lipolytica = conditions: cited from earlier work
[1] = system: Yarrowia lipolytica strain 78-003; assay: FA profile on lipid- versus carbohydrate-containing media; assay type: cell-based; conditions: for Number of different FAs produced: cells grown 120 h
From the text: The hexadecane medium used for FA profile experiments consisted of: 5% v/v hexadecane, 5 g L^−1 yeast nitrogen broth (w/amino acids), 0.5 g L^−1 KH2PO4, and 0.25 g L^−1 Mg2SO4.
Starch medium used for FA profile experiments consisted of: 50 g L^−1 hydrolyzed starch, 2 g L^−1 yeast nitrogen broth (w/amino acids), 0.5 g L^−1 KH2PO4, and 0.25 g L^−1 Mg2SO4. The medium consisted of: 5.4 g L^−1 Tween- 80®, 1.25 g L^−1 (NH4)2SO4, 2.5 g L^−1 KH2PO4, and 0.830 g L^−1 MgSO4. Glucose (5%) medium used for FA profile experiments consisted of: 50 g L^−1 glucose and 3 g L^−1 yeast extract.
Intracellular Lipid Quantification: A modified Bligh and Dyer extraction (Bligh and Dyer 1959) was used to extract lipids from yeast samples. Post-fermentation OP4 culture was withdrawn and aliquoted into pre-weighed 50 ml conical tubes, and tubes were centrifuged, and pellets washed twice with 0.9% NaCl. Pellets were lyophilized overnight using a BT3.3 EL Lyophilizer Tabletop (SP Scientific, USA), weighed, and suspended in a 2:1 v/v chloroform: methanol mixture (5 ml per 50 mg cell dry weight) and sonicated using a Sonic Dismembrator (Fisher Scientific, USA) at 20 kHz, 20% amplitude with pulsing (40 s on, 20 s off for a total working time of 20 min). The chloroform layer was taken and dried under a nitrogen stream. Dried lipids were weighed and derivatized for GC/MS analysis via base-catalyzed esterification with 2.5 ml sodium methoxide (0.1 M) (Milanesio et al. 2013). The reaction was quenched using 200 μL sulfuric acid (>95%), and 2.5 ml hexane was added to each sample, which was then vortexed and centrifuged (5 min at 5000 rpm). 1.5 ml from the top hexane layer was withdrawn for GC/MS analysis.
GC/MS Analysis of Lipid Profile: The FA profile was characterized with an Agilent 7890A gas chromatograph (GC) attached to a 5977A mass spectrometer detector and equipped with an Agilent J&W HP-5 ms UI capillary column ([…]×0.25 mm×[…]). 1 μL samples were injected via an Agilent 7693 Automatic Liquid Sampler in splitless mode with an inlet temperature of 275° C., using helium as the carrier gas at a flow rate of 1 ml min·1. GC oven temperature was held at 60° C. for 1 min, and ramped to 100° C. (rate: 25° C. min·1; hold 1 min). The oven temperature was then increased to 200° C. (rate: 25° C. min^−1; hold 1 min). The oven temperature is then increased to 220° C. (rate: […]; hold 7 min) and then increased to an ending temperature of 300° C. (rate: 25° C. min·1; hold 2 min). A C8-C24 FAME analytical standard was used during sample analyses as an external standard (Sigma Aldrich, USA).

[2] = Precipitation of polyester-derived medium as a function of pH; assay type: physicochemical; conditions: PTT1 medium, pH lowered
Description: Method: One g of PTT fiber is added to 4 ml of industrial grade ethanol (100 percent ethanol), 1 ml DMSO+0.41 g NaOH (18 percent w/v). The mixture is refluxed with heating […] for 45 −60 min; the reflux allows for heating of the mixture without the ethanol evaporating. The heating process to depolymerize the fibers is as follows: in the first 5 min, no stirring, then stir for 10 min while the fibers crystallize into a white substance. Continue the heating/reflux for the remainder of the prescribed time, then let the system cool. The product will be a bluish, slurry with white crystals; it may also contain residual carpet materials such as polypropylene, calcium carbonate and adhesive. The bluish liquid is the alcohol fraction, containing the alcohol soluble components derived from PTT (propanol, propanal). The white crystals are the TPA. The pH during reflux is 12 to 13 and the pH of slurry is 12-12.5. The slurry can be centrifuged to separate the alcohol and TPA fractions, or the slurry can be added to an aqueous solution adjusted to pH=11 or 12 using NaOH. This latter step is used to make PTT1 medium. In PTT1 medium, the contents as described are added to 1 liter of pH adjusted water, while mixing; the added compounds will not precipitate. The pH of the resulting solution is adjusted to 9.5, typically using HCl and NaOH. 300 mg/l yeast extract is added as a N source. […]

[3] = system: Yarrowia lipolytica ATCC strain 46482; assay: Intracellular lipid quantification and GC/MS fatty acid profile, OP5 / PCOP5 medium; assay type: cell-based
Description: Fermentation Optimization: For fermentation optimization experiments, pH, inoculum density, osmolarity, or carbon-nitrogen ratio were altered. For pH experiments, OP5 medium pH was adjusted to 4.0, 5.0, or 6.0 using 2.0 M H2SO4 or 4.0 M NaOH. A Corning 320 pH meter (Corning, USA) was used to measure pH. For starting inoculum density experiments, OP5 medium was inoculated at an inoculum density of either 1.0, 3.0, or 6.0. Aliquots of 1 ml were retrieved from Y. lipolytica overnight culture and inoculum density was measured via absorbance at 600 nm. Based on absorbance readings, a volume of cells corresponding to the desired inoculum density was retrieved from the overnight culture and centrifuged at 4,000 rpm. Pelleted cells were washed twice with 50 mM PBS solution and used to inoculate OP5 medium. […] After the selected parameters were altered, shake flask fermentations were carried out for 120 hours, after which cells were processed and biomass and lipid product formation were analyzed as described below. […]
Component media experiments were carried out in 500 ml Erlenmeyer flasks containing 50 ml medium, and Y. lipolytica was inoculated at an inoculum density of 1.0. […] The supernatant was decanted and cells washed twice with 50 mM PBS before being lyophilized, weighed as described above, and lipids extracted and quantified as described in the following section. […]

[4] = system: Yarrowia lipolytica ATCC strain 46482; assay: Y. lipolytica growth (biomass) in OP5 / PCOP5 medium, fermentation optimization; assay type: cell-based; conditions: added to OP5 medium at 0.75, 1.5 and 3 g L^−1
Description: Polypropylene Growth Medium Preparation: OP5 medium is prepared as follows. 125-ml flat-bottomed borosilicate flasks were used to pyrolyze either virgin PP pellets or sheared postconsumer PP in 3 g batches at 540° C. for 195 minutes. The pyrolysis oil (at 15 g L^−1) was combined with: 5.4 g L^−1 Tween-80@, 5 g L^−1 yeast nitrogen base, 2.5 g L^−1 KH2PO4, 2.5 g L^−1 yeast extract, and 1.25 g L^−1 MgSO4 7H2O. The mixture was emulsified with a hand-held food-grade homogenizer. To compensate for the lack of oleic acid as an emulsifier, the homogenization time of OP5 medium was increased from 90 seconds (mixing time for OP4 medium) to 3 minutes. The resulting homogenized medium was autoclaved for 30 min at 121° C. and 15 psi.
Cultures and Fermentation Conditions: Yarrowia lipolytica ATCC strain 46482 was the strain used in this work. Overnight cultures were prepared from 1 ml 60% glycerol stocks of Y. lipolytica stored at −80° C. […] 1 ml aliquots of overnight cultures were withdrawn and used to measure yeast growth via absorbance. […]
Growth Measurements: Y. lipolytica growth measurements were taken spectrophotometrically and gravimetric measurements. Y. lipolytica culture aliquots of 1 ml were withdrawn, and growth was measured via optical density at 600 nm using an Eppendorf 6131 Biophotometer (Eppendorf, USA). […]

[5] = 250 g L^−1 substrate, strain with Poxl-6 and TGL4 inhibited
[6] = Y. lipolytica growing on the medium, this work

Structure (SMILES): OCC(O)CO [Glycerol, glycerol]
Lipid content (Y. lipolytica; [5]): 31 % CDW
Lipid yield (Y. lipolytica; [5]): 15.5 g/L
C 16:0 in C 16 and C 18 FA profile (Y. lipolytica; source Aggelis 2002): 15 percentages
C 16:1 in C 16 and C 18 FA profile (Y. lipolytica; source Aggelis 2002): 2 percentages
C 18:0 in C 16 and C 18 FA profile (Y. lipolytica; source Aggelis 2002): 11 percentages
C 18:1 in C 16 and C 18 FA profile (Y. lipolytica; source Aggelis 2002): 47 percentages
C 18:2 in C 16 and C 18 FA profile (Y. lipolytica; source Aggelis 2002): 21 percentages
C 16:0 in C 16 and C 18 FA profile (Y. lipolytica; source André et al. 2009): 12 percentages
C 16:1 in C 16 and C 18 FA profile (Y. lipolytica; source André et al. 2009): 11 percentages
C 18:0 in C 16 and C 18 FA profile (Y. lipolytica; source André et al. 2009): 9 percentages
C 18:1 in C 16 and C 18 FA profile (Y. lipolytica; source André et al. 2009): 57 percentages
C 18:2 in C 16 and C 18 FA profile (Y. lipolytica; source André et al. 2009): 11 percentages
C 16:0 in C 16 and C 18 FA profile (Y. lipolytica; source Makri et al. 2010): 13 percentages
C 16:1 in C 16 and C 18 FA profile (Y. lipolytica; source Makri et al. 2010): 17 percentages
C 18:0 in C 16 and C 18 FA profile (Y. lipolytica; source Makri et al. 2010): 6 percentages
C 18:1 in C 16 and C 18 FA profile (Y. lipolytica; source Makri et al. 2010): 55 percentages
C 18:2 in C 16 and C 18 FA profile (Y. lipolytica; source Makri et al. 2010): 7 percentages

Structure (SMILES): O=C[C@H](O)[C@@H](O)[C@H](O)[C@H](O)CO [Glucose, glucose]
C 16:0 in C 16 and C 18 FA profile [1, 6]: 16 percentages
C 16:1 in C 16 and C 18 FA profile [1, 6]: 21 percentages
C 18:0 in C 16 and C 18 FA profile [1, 6]: 7 percentages
C 18:1 in C 16 and C 18 FA profile [1, 6]: 56 percentages
Number of different FAs produced [1]: 10

Structure (SMILES): CCCCCCCCCCCCCCCC [Hexadecane, hexadecane]
C 16:0 in C 16 and C 18 FA profile [1, 6]: 46 percentages
C 16:1 in C 16 and C 18 FA profile [1, 6]: 15 percentages
C 18:0 in C 16 and C 18 FA profile [1, 6]: 10 percentages
C 18:1 in C 16 and C 18 FA profile [1, 6]: 25 percentages
C 18:2 in C 16 and C 18 FA profile [1, 6]: 4 percentages
Number of different FAs produced [1]: 5

pH at which it precipitates from the medium [2]: around 8.5
Structure (SMILES): O=C(O)c1ccc(C(=O)O)cc1 [TPA, terephthalic acid]

Structure (SMILES): [Cl-].[Na+] [NaCl, sodium chloride]
Effect on fatty acid production or intracellular fatty acid content ([3]; added to OP5 medium at 0.75, 1.5 and 3 g L^−1): no significant impact
Effect on Y. lipolytica cell growth [4]: inhibited

Structure (SMILES): CCCCCCCC/C=C\CCCCCCCC(=O)OCCOCC(OCCO)C1OCC(OCCO)C1OCCO (centres unmarked) [Tween® 80, polysorbate 80]
Fatty acids produced attributable to carbon from the component ([3]; growth in OP5 medium): 0.4 g/L
